Numbers after ± are expanded uncertainties.
Settings: Liquid; for Critical pressure: Direct measurement; for Critical temperature: Pulse Heating

| Critical pressure [kPa] | Critical temperature [K] | SMILES |
| --- | --- | --- |
| 2180 ± 180 | 784 ± 24 | CCCC[c-]1cccc1.[Fe+2].c1cc[cH-]c1 [butylferrocene] |
| 3610 ± 200 | 785 ± 16 | [CH]1C=CC=C1.[CH]1C=CC=C1.[Fe] [ferrocene] |
| 3280 ± 260 | 847 ± 26 | CC(=O)c1ccc[cH-]1.[Fe+2].c1cc[cH-]c1 [acetylferrocene] |
| 1590 ± 120 | 886 ± 26 | O=C(c1ccccc1)c1ccc[cH-]1.[Fe+2].c1cc[cH-]c1 [benzoylferrocene] |
